Biological target: CDK2/Cyclin E1 (Homo sapiens (Human), UniProt P24941)
Assay: CDK2/Cyclin E1 HTRF enzyme activity assay
Format: biochemical
Conditions: 1 mM ATP; CDK2/Cyclin E1 0.25 nM; 60 minutes at room temperature
In short: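 HTRF read-out of 4E-BP1 (Thr37/46) peptide phosphorylation (ULight peptide 50 nM) by 0.25 nM baculovirus-made GST-CDK2/FLAG-Cyclin E1, with ATP at 50 μM or 1 mM, 60 min at room temperature, pH 7.5. Eu-anti-phospho antibody with EDTA quench; IC50 fitted by three- or four-parameter dose-response.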

IC50, ≤ 20 nM:
CS(=O)(=O)N1CCC(Nc2nc3ccc(-c4cn[nH]c4)c(OCC(F)(F)C(F)F)n3n2)CC1 [Example 81, N-(1-(Methylsulfonyl)piperidin-4-yl)-6-(1H-pyrazol-4-yl)-5-(2,2,3,3-tetrafluoropropoxy)-[1,2,4]triazolo[1,5-a]pyridin-2-amine]
CS(=O)(=O)N1CCC(Nc2nc3ccc(-c4cn[nH]c4)c(OCC4CC4)n3n2)CC1 [Example 82, 5-(Cyclopropylmethoxy)-N-(1-(methylsulfonyl)piperidin-4-yl)-6-(1H-pyrazol-4-yl)-[1,2,4]triazolo[1,5-a]pyridin-2-amine]
C[C@@H]1CN(S(C)(=O)=O)CC[C@@H]1Nc1nc2ccc(-c3cn[nH]c3)c(N3CCCCC3)n2n1 [Example 83, N-((3R,4S)-3-Methyl-1-(methylsulfonyl)piperidin-4-yl)-5-(piperidin-1-yl)-6-(1H-pyrazol-4-yl)-[1,2,4]triazolo[1,5-a]pyridin-2-amine]
CCS(=O)(=O)N1CC[C@H](Nc2nc3ccc(-c4cn[nH]c4)c(N4CCCCC4)n3n2)[C@H](C)C1 [Example 84, N-((3R,4S)-1-(Ethylsulfonyl)-3-methylpiperidin-4-yl)-5-(piperidin-1-yl)-6-(1H-pyrazol-4-yl)-[1,2,4]triazolo[1,5-a]pyridin-2-amine]
C[C@@H]1CN(S(=O)(=O)C2CC2)CC[C@@H]1Nc1nc2ccc(-c3cn[nH]c3)c(N3CCCCC3)n2n1 [Example 85, N-((3R,4S)-1-(Cyclopropylsulfonyl)-3-methylpiperidin-4-yl)-5-(piperidin-1-yl)-6-(1H-pyrazol-4-yl)-[1,2,4]triazolo[1,5-a]pyridin-2-amine]
C[C@@H]1CN(S(=O)(=O)c2cn(C)cn2)CC[C@@H]1Nc1nc2ccc(-c3cn[nH]c3)c(N3CCCCC3)n2n1 [Example 86, N-((3R,4S)-3-Methyl-1-((1-methyl-1H-imidazol-4-yl)sulfonyl)piperidin-4-yl)-5-(piperidin-1-yl)-6-(1H-pyrazol-4-yl)-[1,2,4]triazolo[1,5-a]pyridin-2-amine]
CC(C)Oc1c(-c2cn[nH]c2)ncc2nc(N[C@H]3CCN(S(C)(=O)=O)C[C@H]3C)nn12 [Example 87, 5-Isopropoxy-N-((3R,4S)-3-methyl-1-(methylsulfonyl)piperidin-4-yl)-6-(1H-pyrazol-4-yl)-[1,2,4]triazolo[1,5-a]pyrazin-2-amine]
CCS(=O)(=O)N1CC[C@H](Nc2nc3cnc(-c4cn[nH]c4)c(OC(C)C)n3n2)[C@H](C)C1 [Example 88, N-((3R,4S)-1-(Ethylsulfonyl)-3-methylpiperidin-4-yl)-5-isopropoxy-6-(1H-pyrazol-4-yl)-[1,2,4]triazolo[1,5-a]pyrazin-2-amine]
CC(C)Oc1c(-c2cn[nH]c2)ncc2nc(N[C@H]3CCN(S(=O)(=O)C4CC4)C[C@H]3C)nn12 [Example 89, N-((3R,4S)-1-(Cyclopropylsulfonyl)-3-methylpiperidin-4-yl)-5-isopropoxy-6-(1H-pyrazol-4-yl)-[1,2,4]triazolo[1,5-a]pyrazin-2-amine]
C[C@@H]1CN(S(C)(=O)=O)CC[C@@H]1Nc1nc2cnc(-c3cn[nH]c3)c(OC3CCOCC3)n2n1 [Example 90]
CCS(=O)(=O)N1CC[C@H](Nc2nc3cnc(-c4cn[nH]c4)c(OC4CCOCC4)n3n2)[C@H](C)C1 [Example 91, N-((3R,4S)-1-(Ethylsulfonyl)-3-methylpiperidin-4-yl)-6-(1H-pyrazol-4-yl)-5-((tetrahydro-2H-pyran-4-yl)oxy)-[1,2,4]triazolo[1,5-a]pyrazin-2-amine]
C[C@@H]1CN(S(=O)(=O)C2CC2)CC[C@@H]1Nc1nc2cnc(-c3cn[nH]c3)c(OC3CCOCC3)n2n1 [Example 92, N-((3R,4S)-1-(Cyclopropylsulfonyl)-3-methylpiperidin-4-yl)-6-(1H-pyrazol-4-yl)-5-((tetrahydro-2H-pyran-4-yl)oxy)-[1,2,4]triazolo[1,5-a]pyrazin-2-amine]
CCS(=O)(=O)N1CC[C@H](Nc2nc3cnc(-c4cn[nH]c4)c(OC4CCC4)n3n2)[C@H](C)C1 [Example 93, 5-Cyclobutoxy-N-((3R,4S)-1-(ethylsulfonyl)-3-methylpiperidin-4-yl)-6-(1H-pyrazol-4-yl)-[1,2,4]triazolo[1,5-a]pyrazin-2-amine]
C[C@@H]1CN(S(=O)(=O)c2cnn(C)c2)CC[C@@H]1Nc1nc2cnc(-c3cn[nH]c3)c(OC3CCC3)n2n1 [Example 94, 5-Cyclobutoxy-N-((3R,4S)-3-methyl-1-((1-methyl-1H-pyrazol-4-yl)sulfonyl)piperidin-4-yl)-6-(1H-pyrazol-4-yl)-[1,2,4]triazolo[1,5-a]pyrazin-2-amine]
C[C@@H]1CN(S(=O)(=O)c2cn(C)cn2)CC[C@@H]1Nc1nc2cnc(-c3cn[nH]c3)c(OC3CCC3)n2n1 [Example 95, 5-Cyclobutoxy-N-((3R,4S)-3-methyl-1-((1-methyl-1H-imidazol-4-yl)sulfonyl)piperidin-4-yl)-6-(1H-pyrazol-4-yl)-[1,2,4]triazolo[1,5-a]pyrazin-2-amine]
CCS(=O)(=O)N1CC[C@H](Nc2nc3ccc(-c4cn[nH]c4)c(OC(C)C)n3n2)[C@H](C)C1 [Example 96, N-((3R,4S)-1-(Ethylsulfonyl)-3-methylpiperidin-4-yl)-5-isopropoxy-6-(1H-pyrazol-4-yl)-[1,2,4]triazolo[1,5-a]pyridin-2-amine]
CC(C)Oc1c(-c2cn[nH]c2)ccc2nc(N[C@H]3CCN(S(=O)(=O)C4CC4)C[C@H]3C)nn12 [Example 97, N-((3R,4S)-1-(Cyclopropylsulfonyl)-3-methylpiperidin-4-yl)-5-isopropoxy-6-(1H-pyrazol-4-yl)-[1,2,4]triazolo[1,5-a]pyridin-2-amine]
C[C@@H]1CN(S(C)(=O)=O)CC[C@@H]1Nc1nc2ccc(-c3cn[nH]c3)c(OC3CCOCC3)n2n1 [Example 98, N-((3R,4S)-3-Methyl-1-(methylsulfonyl)piperidin-4-yl)-6-(1H-pyrazol-4-yl)-5-((tetrahydro-2H-pyran-4-yl)oxy)-[1,2,4]triazolo[1,5-a]pyridin-2-amine]
C[C@@H]1CN(S(=O)(=O)c2cnn(C)c2)CC[C@@H]1Nc1nc2ccc(-c3cn[nH]c3)c(OC3CCOCC3)n2n1 [Example 99, N-((3R,4S)-3-Methyl-1-((1-methyl-1H-pyrazol-4-yl)sulfonyl)piperidin-4-yl)-6-(1H-pyrazol-4-yl)-5-((tetrahydro-2H-pyran-4-yl)oxy)-[1,2,4]triazolo[1,5-a]pyridin-2-amine]
C[C@@H]1CN(S(C)(=O)=O)CC[C@@H]1Nc1nc2cnc(-c3cn[nH]c3)c(OC3CCC3)n2n1 [Example 100, 5-Cyclobutoxy-N-((3R,4S)-3-methyl-1-(methylsulfonyl)piperidin-4-yl)-6-(1H-pyrazol-4-yl)-[1,2,4]triazolo[1,5-a]pyrazin-2-amine]
CC(C)COc1c(-c2cn[nH]c2)ncc2nc(N[C@H]3CCN(S(C)(=O)=O)C[C@H]3C)nn12 [Example 101, 5-Isobutoxy-N-((3R,4S)-3-methyl-1-(methylsulfonyl)piperidin-4-yl)-6-(1H-pyrazol-4-yl)-[1,2,4]triazolo[1,5-a]pyrazin-2-amine]
CCCOc1c(-c2cn[nH]c2)ncc2nc(N[C@H]3CCN(S(C)(=O)=O)C[C@H]3C)nn12 [Example 102, N-((3R,4S)-3-Methyl-1-(methylsulfonyl)piperidin-4-yl)-5-propoxy-6-(1H-pyrazol-4-yl)-[1,2,4]triazolo[1,5-a]pyrazin-2-amine]
CCCCOc1c(-c2cn[nH]c2)ncc2nc(N[C@H]3CCN(S(C)(=O)=O)C[C@H]3C)nn12 [Example 103, 5-Butoxy-N-((3R,4S)-3-methyl-1-(methylsulfonyl)piperidin-4-yl)-6-(1H-pyrazol-4-yl)-[1,2,4]triazolo[1,5-a]pyrazin-2-amine]
CC(C)COc1c(-c2cn[nH]c2)ncc2nc(NC3CCN(S(C)(=O)=O)CC3)nn12 [Example 104, 5-Isobutoxy-N-(1-(methylsulfonyl)piperidin-4-yl)-6-(1H-pyrazol-4-yl)-[1,2,4]triazolo[1,5-a]pyrazin-2-amine]
CCCOc1c(-c2cn[nH]c2)ncc2nc(NC3CCN(S(C)(=O)=O)CC3)nn12 [Example 105, N-(1-(Methylsulfonyl)piperidin-4-yl)-5-propoxy-6-(1H-pyrazol-4-yl)-[1,2,4]triazolo[1,5-a]pyrazin-2-amine]
CCCCOc1c(-c2cn[nH]c2)ncc2nc(NC3CCN(S(C)(=O)=O)CC3)nn12 [Example 106, 5-Butoxy-N-(1-(methylsulfonyl)piperidin-4-yl)-6-(1H-pyrazol-4-yl)-[1,2,4]triazolo[1,5-a]pyrazin-2-amine]
CC1CC(Oc2c(-c3cn[nH]c3)ncc3nc(N[C@H]4CCN(S(C)(=O)=O)C[C@H]4C)nn23)C1 (stereo partly drawn) [Example 107, N-((3R,4S)-3-Methyl-1-(methylsulfonyl)piperidin-4-yl)-5-(3-methylcyclobutoxy)-6-(1H-pyrazol-4-yl)-[1,2,4]triazolo[1,5-a]pyrazin-2-amine]
C[C@@H]1CN(S(C)(=O)=O)CC[C@@H]1Nc1nc2cnc(-c3cn[nH]c3)c(OC3CC(C(F)F)C3)n2n1 (stereo partly drawn) [Example 108, 5-(3-(Difluoromethyl)cyclobutoxy)-N-((3R,4S)-3-methyl-1-(methylsulfonyl)piperidin-4-yl)-6-(1H-pyrazol-4-yl)-[1,2,4]triazolo[1,5-a]pyrazin-2-amine]

Reference: patent US11851426B2, “Bicyclic amines as CDK2 inhibitors” (Incyte Corporation, priority 2019, dated 2023)
